Activity calls are given as the source filed them. The calls are words filed in the database; no cut-off is given here.
Experiments:
[1] = system: Escherichia coli; experiment: Inhibition of recombinant Escherichia coli O104:H4 Beta-1,3-galactosyltransferase WbwC expressed in Escherichia coli BL21 at 0.5 mM in presence of UDP-[3H]Gal and GalNAC-PO3-PO3-(CH2)11-O-phenyl after 1 hr by scintillation counting method relative to control
[2] = system: Pseudomonas aeruginosa; experiment: Antimicrobial activity against Pseudomonas aeruginosa PAO1 assessed as inhibition of colony formation at 50 uM preincubated for 4 hrs and measured after overnight incubation by CFU assay; format: functional
[3] = Inhibition of recombinant Escherichia coli O104:H4 Beta-1,3-galactosyltransferase WbwC expressed in Escherichia coli BL21 in presence of UDP-[3H]Gal and GalNAC-PO3-PO3-(CH2)11-O-phenyl after 1 hr by scintillation counting method
[4] = molecular target: T1, Beta-1,4-galactosyltransferase 1 (Bos taurus) (UniProt P08037); experiment: Inhibition of bovine milk Beta-1,4-galactosyltransferase at 0.5 mM in presence of UDP-[3H]Gal and GlcNAc-beta-Bn after 1 hr by scintillation counting method
T1 sequence (whole entry): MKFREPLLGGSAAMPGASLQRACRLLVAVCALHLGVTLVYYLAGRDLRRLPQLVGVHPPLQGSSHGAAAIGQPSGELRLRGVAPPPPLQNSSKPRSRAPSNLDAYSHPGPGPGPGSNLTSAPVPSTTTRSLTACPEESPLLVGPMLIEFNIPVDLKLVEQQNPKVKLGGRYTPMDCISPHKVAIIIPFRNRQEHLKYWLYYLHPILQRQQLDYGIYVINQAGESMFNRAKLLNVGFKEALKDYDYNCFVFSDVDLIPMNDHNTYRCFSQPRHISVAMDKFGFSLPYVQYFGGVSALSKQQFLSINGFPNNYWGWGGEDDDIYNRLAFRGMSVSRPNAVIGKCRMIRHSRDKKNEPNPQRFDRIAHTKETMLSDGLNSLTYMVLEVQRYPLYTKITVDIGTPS

[5] = system: Pseudomonas aeruginosa; experiment: Antimicrobial activity against Pseudomonas aeruginosa PAO1 assessed as inhibition of colony formation at 5 uM preincubated for 4 hrs and measured after overnight incubation by CFU assay; format: functional
[6] = system: Staphylococcus epidermidis; experiment: Antimicrobial activity against Staphylococcus epidermidis assessed as inhibition of colony formation at 5 uM preincubated for 4 hrs and measured after overnight incubation by CFU assay; format: functional
[7] = system: Escherichia coli; experiment: Antimicrobial activity against Escherichia coli BL21 assessed as inhibition of colony formation at 25 uM preincubated for 4 hrs and measured after overnight incubation by CFU assay; format: functional
[8] = system: Staphylococcus epidermidis; experiment: Antimicrobial activity against Staphylococcus epidermidis assessed as inhibition of colony formation at 25 uM preincubated for 4 hrs and measured after overnight incubation by CFU assay; format: functional
[9] = system: Bacillus subtilis; experiment: Antimicrobial activity against Bacillus subtilis assessed as inhibition of colony formation at 25 uM preincubated for 4 hrs and measured after overnight incubation by CFU assay; format: functional
[10] = system: Staphylococcus epidermidis; experiment: Antimicrobial activity against Staphylococcus epidermidis assessed as inhibition of colony formation at 10 uM preincubated for 4 hrs and measured after overnight incubation by CFU assay; format: functional
[11] = system: Escherichia coli; experiment: Antimicrobial activity against Escherichia coli BL21 assessed as inhibition of colony formation at 5 uM preincubated for 4 hrs and measured after overnight incubation by CFU assay; format: functional
[12] = system: Bacillus subtilis; experiment: Antimicrobial activity against Bacillus subtilis assessed as inhibition of colony formation at 10 uM preincubated for 4 hrs and measured after overnight incubation by CFU assay; format: functional
[13] = system: Bacillus subtilis; experiment: Antimicrobial activity against Bacillus subtilis assessed as inhibition of colony formation at 5 uM preincubated for 4 hrs and measured after overnight incubation by CFU assay; format: functional
[14] = system: Pseudomonas aeruginosa; experiment: Antimicrobial activity against Pseudomonas aeruginosa PAO1 assessed as inhibition of colony formation at 25 uM preincubated for 4 hrs and measured after overnight incubation by CFU assay; format: functional
[15] = system: Pseudomonas aeruginosa; experiment: Antimicrobial activity against Pseudomonas aeruginosa PAO1 assessed as inhibition of colony formation at 10 uM preincubated for 4 hrs and measured after overnight incubation by CFU assay; format: functional
[16] = system: Escherichia coli; experiment: Antimicrobial activity against Escherichia coli BL21 assessed as inhibition of colony formation at 10 uM preincubated for 4 hrs and measured after overnight incubation by CFU assay; format: functional
[17] = system: AD293; experiment: Growth inhibition of human AD293 cells at 50 uM after 24 hrs by MTT assay; format: cell-based; settings: ad293, 24 h
[18] = system: A549; experiment: Growth inhibition of human A549 cells at 50 uM after 24 hrs by MTT assay; format: cell-based; settings: a549, 24 h
[19] = system: OC-3-VGH; experiment: Growth inhibition of human OC-3-VGH cells at 50 uM after 24 hrs by MTT assay; format: cell-based

SMILES: C[n+]1ccn(CCCCCCCCCCCCCCCn2cc[n+](C)c2)c1
- inhibition [1]: 11%

SMILES: C[n+]1ccn(CCCCn2cc[n+](C)c2)c1
- inhibition [1]: 9%
- inhibition at 50 µM [2]: 0%

SMILES: CCCCCCCC[n+]1ccn(CCCCCCCCCCCCCCCCn2cc[n+](CCCCCCCC)c2)c1
- inhibition [1]: 93%
- IC50 [3]: 18 µM

SMILES: CCCCCCCCCCCC[n+]1ccn(CCCCCCn2cc[n+](CCCCCCCCCCCC)c2)c1
- inhibition [1]: 90%
- IC50 [3]: 43 µM
- inhibition [4]: Active

SMILES: CCCCCCCCCC[n+]1ccn(CCCCCCCCCCCCCCCCn2cc[n+](CCCCCCCCCC)c2)c1
- inhibition [1]: 92%
- IC50 [3]: 147 µM

SMILES: CCCCCCCCCCCC[n+]1ccn(CCCCCCCCCCn2cc[n+](CCCCCCCCCCCC)c2)c1
- inhibition at 5 µM [5]: > 98%
- inhibition at 5 µM [6]: 100%
- inhibition at 25 µM [7]: 100%
- inhibition at 25 µM [8]: 100%
- inhibition at 25 µM [9]: 100%
- inhibition at 10 µM [10]: 100%
- inhibition [1]: 91%
- IC50 [3]: 59 µM
- inhibition at 5 µM [11]: 100%
- inhibition at 10 µM [12]: 100%
- inhibition [4]: Active
- inhibition at 5 µM [13]: 100%
- inhibition at 25 µM [14]: < 98%
- inhibition at 10 µM [15]: 100%
- inhibition at 10 µM [16]: 100%

SMILES: C[n+]1ccn(CCCCCCCCn2cc[n+](C)c2)c1
- inhibition [1]: 21%

SMILES: CCCCCCCCCCCC[n+]1ccn(CCCCCCCCCCCCCCCCn2cc[n+](CCCCCCCCCCCC)c2)c1
- inhibition [1]: 92%
- IC50 [3]: 121 µM
- inhibition [4]: Active

SMILES: C[n+]1ccn(CCCCCCCCCCCCCCCCn2cc[n+](C)c2)c1
- inhibition [1]: < 1%

SMILES: CCCCCC[n+]1ccn(CCCCCCCCCCCCCCCCn2cc[n+](CCCCCC)c2)c1
- inhibition [1]: 88%
- IC50 [3]: 48 µM
- inhibition [4]: Active

SMILES: CCCCCCC[n+]1ccn(CCCCCCCCCCCCCCCCn2cc[n+](CCCCCCC)c2)c1
- inhibition [1]: 95%
- IC50 [3]: 11 µM

SMILES: CCCCCCCCCC[n+]1ccn(CCCCCCCCCCn2cc[n+](CCCCCCCCCC)c2)c1
- inhibition [1]: 98%
- IC50 [3]: 152 µM

SMILES: CCCCCC[n+]1ccn(CCCCCCn2cc[n+](CCCCCC)c2)c1
- inhibition [1]: 6%

SMILES: CCCCCCCCC[n+]1ccn(CCCCCCCCCCn2cc[n+](CCCCCCCCC)c2)c1
- inhibition [1]: 95%
- IC50 [3]: 23 µM
- inhibition [4]: Active

SMILES: CCCCCCCCCC[n+]1ccn(CCCCCCn2cc[n+](CCCCCCCCCC)c2)c1
- inhibition [1]: 92%
- IC50 [3]: 263 µM
- inhibition [4]: Active

SMILES: c1cn(CCCCCCCCCCCCCCCCCCn2ccnc2)cn1
- growth inhibition (GI) [17]: Non-Toxic
- growth inhibition (GI) [18]: Non-Toxic
- growth inhibition (GI) [19]: Non-Toxic

SMILES: C[n+]1ccn(CCCCCCCCCCCCCCn2cc[n+](C)c2)c1
- inhibition at 5 µM [5]: 0%
- inhibition at 5 µM [6]: 0%
- inhibition at 25 µM [7]: 51%
- inhibition at 25 µM [8]: 0%
- inhibition at 25 µM [9]: 51%
- inhibition at 10 µM [10]: 0%
- inhibition [1]: 10%
- inhibition at 5 µM [11]: 0%
- inhibition at 10 µM [12]: 20%
- inhibition at 5 µM [13]: 8%
- inhibition at 25 µM [14]: 22%
- inhibition at 10 µM [15]: 4%
- inhibition at 10 µM [16]: 32%

SMILES: CCCCCCCCCCC[n+]1ccn(CCCCCCCCCCn2cc[n+](CCCCCCCCCCC)c2)c1
- inhibition [1]: 98%
- IC50 [3]: 62 µM

SMILES: CCCCCCCC[n+]1ccn(CCCCCCCCCCn2cc[n+](CCCCCCCC)c2)c1
- inhibition at 5 µM [5]: 96%
- inhibition at 5 µM [6]: 100%
- inhibition at 25 µM [7]: 100%
- inhibition at 25 µM [8]: 100%
- inhibition at 25 µM [9]: 100%
- inhibition at 10 µM [10]: 100%
- inhibition [1]: 64%
- IC50 [3]: 123 µM
- inhibition at 5 µM [11]: 100%
- inhibition at 10 µM [12]: 100%
- inhibition at 5 µM [13]: 100%
- inhibition at 25 µM [14]: 100%
- inhibition at 10 µM [15]: 100%
- inhibition at 10 µM [16]: 100%

SMILES: CCCCCC[n+]1ccn(CCCCCCCCCCn2cc[n+](CCCCCC)c2)c1
- inhibition [1]: < 1%

SMILES: C[n+]1ccn(CCCCCCCCCCCCCCCCCCCCCCn2cc[n+](C)c2)c1
- inhibition [1]: 91%
- IC50 [3]: 159 µM
- inhibition at 50 µM [2]: 100%
- inhibition at 25 µM [14]: > 95%

SMILES: CCCCCCC[n+]1ccn(CCCCCCCCCCn2cc[n+](CCCCCCC)c2)c1
- inhibition [1]: < 1%

SMILES: CCCCCCCCCCC[n+]1ccn(CCCCCCn2cc[n+](CCCCCCCCCCC)c2)c1
- inhibition [1]: 99%
- IC50 [3]: 117 µM

SMILES: CCCCCCCC[n+]1ccn(CCCCCCn2cc[n+](CCCCCCCC)c2)c1
- inhibition [1]: 13%

SMILES: CCCCCCCCC[n+]1ccn(CCCCCCn2cc[n+](CCCCCCCCC)c2)c1
- inhibition [1]: < 10%

SMILES: c1cn(CCCCCCCCCCCCCCCCn2ccnc2)cn1
- growth inhibition (GI) [17]: Non-Toxic
- growth inhibition (GI) [18]: Non-Toxic
- growth inhibition (GI) [19]: Non-Toxic

SMILES: c1cn(CCCCCCCCCCCCCCCCCCCCn2ccnc2)cn1
- growth inhibition (GI) [17]: Non-Toxic
- growth inhibition (GI) [18]: Non-Toxic
- growth inhibition (GI) [19]: Non-Toxic

SMILES: CCCCCCC[n+]1ccn(CCCCCCn2cc[n+](CCCCCCC)c2)c1
- inhibition [1]: 16%

SMILES: CCCCCCCCC[n+]1ccn(CCCCCCCCCCCCCCCCn2cc[n+](CCCCCCCCC)c2)c1
- inhibition [1]: 93%
- IC50 [3]: 35 µM

SMILES: CCCCCCCCCCC[n+]1ccn(CCCCCCCCCCCCCCCCn2cc[n+](CCCCCCCCCCC)c2)c1
- inhibition at 5 µM [5]: 28%
- inhibition at 5 µM [6]: 100%
- inhibition at 25 µM [7]: 100%
- inhibition at 25 µM [8]: 100%
- inhibition at 25 µM [9]: 100%
- inhibition at 10 µM [10]: 100%
- inhibition [1]: 92%
- IC50 [3]: 123 µM
- inhibition at 5 µM [11]: 100%
- inhibition at 10 µM [12]: 100%
- inhibition at 5 µM [13]: 100%
- inhibition at 25 µM [14]: 100%
- inhibition at 10 µM [15]: 77%
- inhibition at 10 µM [16]: 100%

SMILES: C[n+]1ccn(CCCCCCn2cc[n+](C)c2)c1
- inhibition [1]: 7%
- inhibition at 50 µM [2]: 0%
